The source of these data is patent publication US12448399B2, “Cereblon-based KRAS degrading PROTACs and uses related thereto” (Arvinas Operations, Inc., priority 2023, dated 2025).

For orientation: DC50 means the midpoint of the concentration-degradation curve. One may read the Dmax as the largest share of the target that was removed. A higher Dmax goes with a fuller loss of target.

This test deals with T1, KRas-G12D (Homo sapiens, UniProt P01116, G12D).
T1 construct: insert the HiBiT tag onto the N-terminus of one or more of the endogenous KRas alleles; host or cells: AsPC-1 HiBiT-KRasG12D knock-in clone (one tagged allele, two untagged KRasG12D alleles)
T1 sequence (P01116 1-188 isoform P01116-2 G12D): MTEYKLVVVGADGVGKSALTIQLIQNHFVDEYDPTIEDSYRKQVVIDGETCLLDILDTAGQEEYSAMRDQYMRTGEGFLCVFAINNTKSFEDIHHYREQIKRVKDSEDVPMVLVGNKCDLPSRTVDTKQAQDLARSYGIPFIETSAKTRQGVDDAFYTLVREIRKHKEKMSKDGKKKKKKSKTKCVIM
Nature of the test: HiBiT Degradation Assay (G12D), AsPC-1 HiBiT-KRasG12D cells, 24 hr. The test is classed as cell-based. The following applies: for DC50: AsPC-1 cells; for Dmax: ASPC1, AsPC-1 cells, maximum degradation observed. In short, it runs like this:
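Degradation was read after 24 hr compound exposure (0.5% DMSO, 37° C) by Nano-Glo HiBiT lytic luminescence in AsPC-1 cells carrying a HiBiT tag on one of three KRasG12D alleles. Signal relative to DMSO gave DC50 and Dmax by 4-parameter fit; alamar blue fluorescence monitored cytotoxicity.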

With `CCc1cccc2cc(O)cc(-c3ncc4c(N5CC6CCC(C5)N6)nc(OCCN5CCC6(CC5)CCN(CC5CCN(c7ccc8c(c7)C(=O)N(C7CCC(=O)NC7=O)C8=O)CC5)CC6)nc4c3F)c12` (centres unmarked) [Compound 25], the half-maximal degradation concentration (DC50) is below 5.1 µM.
Compound `C#Cc1c(F)ccc2cc(O)cc(-c3ncc4c(N5CC6CCC(C5)N6)nc(OCCN5CCC(CN6CCC(CC7CCN(c8ccc9c(c8)n(C)c(=O)n9C8CCC(=O)NC8=O)CC7)CC6)CC5)nc4c3F)c12` (centres unmarked) [Compound 82, 3-{5-[4-({1-[(1-{2-[(4-{3,8-diazabicyclo[3.2.1]octan-3-yl}-7-(8-ethynyl-7-fluoro-3-hydroxynaphthalen-1-yl)-8-fluoropyrido[4,3-d]pyrimidin-2-yl)oxy]ethyl}piperidin-4-yl)methyl]piperidin-4-yl}methyl)piperidin-1-yl]-3-methyl-2-oxo-2,3-dihydro-1H-1,3-benzodiazol-1-yl}piperidine-2,6-dione] came in with a Dmax above 70% and a DC50 below 5.1 µM.
For `C#Cc1c(F)ccc2cc(O)cc(-c3ncc4c(N5CC6CCC(C5)N6)nc(OCCN5CCC(CC6CCN(CC7CCN(c8ccc9c(c8)CN(C8CCC(=O)NC8=O)C9=O)CC7)CC6)CC5)nc4c3F)c12` (centres unmarked) [Compound 138], the Dmax was above 70% and the DC50 was below 5.1 µM.
`C#Cc1c(F)ccc2cc(O)cc(-c3ncc4c(N5CC6CCC(C5)N6)nc(OCCN5CCC(CN6CCN(CC7CCN(c8cccc9c8CN(C8CCC(=O)NC8=O)C9=O)CC7)CC6)CC5)nc4c3F)c12` (centres unmarked) [Compound 136, 3-{4-[4-({4-[(1-{2-[(4-{3,8-diazabicyclo[3.2.1]octan-3-yl}-7-(8-ethynyl-7-fluoro-3-hydroxynaphthalen-1-yl)-8-fluoropyrido[4,3-d]pyrimidin-2-yl)oxy]ethyl}piperidin-4-yl)methyl]piperazin-1-yl}methyl)piperidin-1-yl]-1-oxo-2,3-dihydro-1H-isoindol-2-yl}piperidine-2,6-dione] showed a Dmax above 70% and a DC50 below 5.1 µM.
Regarding `C#Cc1c(F)ccc2cc(O)cc(-c3ncc4c(N5CC6CCC(C5)N6)nc(OCCN5CCN(CC6CCN(CC7CCN(c8ccc9c(c8F)CN(C8CCC(=O)NC8=O)C9=O)CC7)CC6)CC5(C)C)nc4c3F)c12` (centres unmarked) [Compound 174, 3-{5-[4-({4-[(4-{2-[(4-{3,8-diazabicyclo[3.2.1]octan-3-yl}-7-(8-ethynyl-7-fluoro-3-hydroxynaphthalen-1-yl)-8-fluoropyrido[4,3-d]pyrimidin-2-yl)oxy]ethyl}-3,3-dimethylpiperazin-1-yl)methyl]piperidin-1-yl}methyl)piperidin-1-yl]-4-fluoro-1-oxo-2,3-dihydro-1H-isoindol-2-yl}piperidine-2,6-dione], the Dmax is above 70% and the DC50 was below 5.1 µM.
For the compound `CCc1c(F)ccc2cc(O)cc(-c3ncc4c(N5CC6CCC(C5)N6)nc(OCCN5CCC(F)(CN6CCN(CC7CCN(c8ccc9c(c8)n(C)c(=O)n9C8CCC(=O)NC8=O)CC7)CC6)CC5)nc4c3F)c12` (centres unmarked) [Compound 181, 3-{5-[4-({4-[(1-{2-[(4-{3,8-diazabicyclo[3.2.1]octan-3-yl}-7-(8-ethyl-7-fluoro-3-hydroxynaphthalen-1-yl)-8-fluoropyrido[4,3-d]pyrimidin-2-yl)oxy]ethyl}-4-fluoropiperidin-4-yl)methyl]piperazin-1-yl}methyl)piperidin-1-yl]-3-methyl-2-oxo-2,3-dihydro-1H-1,3-benzodiazol-1-yl}piperidine-2,6-dione], the Dmax is above 70% and the DC50 is below 5.1 µM.
In turn, `C#Cc1c(F)ccc2cc(O)cc(-c3ncc4c(N5CC6CCC(C5)N6)nc(OCCN5CCC6(CC5)CCN(CC5CCN(c7cccc8c7n(C)c(=O)n8C7CCC(=O)NC7=O)CC5)CC6)nc4c3F)c12` (centres unmarked) [Compound 83, 3-(4-{4-[(9-{2-[(4-{3,8-diazabicyclo[3.2.1]octan-3-yl}-7-(8-ethynyl-7-fluoro-3-hydroxynaphthalen-1-yl)-8-fluoropyrido[4,3-d]pyrimidin-2-yl)oxy]ethyl}-3,9-diazaspiro[5.5]undecan-3-yl)methyl]piperidin-1-yl}-3-methyl-2-oxo-2,3-dihydro-1H-1,3-benzodiazol-1-yl)piperidine-2,6-dione] registered a Dmax above 70% and a DC50 below 5.1 µM.
Consider `CCc1cccc2cc(O)cc(-c3ncc4c(N5CC6CCC(C5)N6)nc(OC[C@@]56CCCN5[C@H](COC(=O)N5CCN(c7ccc8c(c7)C(=O)N(C7CCC(=O)NC7=O)C8=O)CC5)CC6)nc4c3F)c12` (stereo partly drawn) [Compound 62, [(3S,8S)-8-[[4-(3,8-diazabicyclo[3.2.1]octan-3-yl)-7-(8-ethyl-3-hydroxy-1-naphthyl)-8-fluoro-pyrido[4,3-d]pyrimidin-2-yl]oxymethyl]-1,2,3,5,6,7-hexahydropyrrolizin-3-yl]methyl4-[2-(2,6-dioxo-3-piperidyl)-1,3-dioxo-isoindolin-5-yl]piperazine-1-carboxylate], for which the DC50 was below 5.1 µM.
On the same count and under the same terms, the same measure for `CCc1c(F)ccc2cc(O)cc(-c3ncc4c(N5CC6CCC(C5)N6)nc(OCCN5CCC(CC6CCN(CC7CCN(c8cccc9c8CN(C8CCC(=O)NC8=O)C9=O)CC7)CC6)CC5)nc4c3F)c12` (centres unmarked) [Compound 137, 3-{4-[4-({4-[(1-{2-[(4-{3,8-diazabicyclo[3.2.1]octan-3-yl}-7-(8-ethyl-7-fluoro-3-hydroxynaphthalen-1-yl)-8-fluoropyrido[4,3-d]pyrimidin-2-yl)oxy]ethyl}piperidin-4-yl)methyl]piperidin-1-yl}methyl)piperidin-1-yl]-1-oxo-2,3-dihydro-1H-isoindol-2-yl}piperidine-2,6-dione]: below 5.1 µM.
As for `C#Cc1c(F)ccc2cc(O)cc(-c3ncc4c(N5CC6CCC(C5)N6)nc(OCCN5CCC(CN6CCC(CC7CCN(c8ccc9c(c8)CN(C8CCC(=O)NC8=O)C9=O)CC7)CC6)CC5)nc4c3F)c12` (centres unmarked) [Compound 87, 3-[5-[4-[[1-[[1-[2-[4-(3,8-diazabicyclo[3.2.1]octan-3-yl)-7-(8-ethynyl-7-fluoro-3-hydroxy-1-naphthyl)-8-fluoropyrido[4,3-d]pyrimidin-2-yl]oxyethyl]-4-piperidyl]methyl]-4-piperidyl]methyl]-1-piperidyl]-1-oxo-isoindolin-2-yl]piperidine-2,6-dione], the Dmax is above 70% and the DC50 was below 5.1 µM.
For `C#Cc1c(F)ccc2cc(O)cc(-c3ncc4c(C5CC6CCC(C5)N6)nc(OCCN5CCC(CC6CCN(CC7CCN(c8ccc9c(c8)C(=O)N(C8CCC(=O)NC8=O)C9=O)CC7)CC6)CC5)nc4c3F)c12` (centres unmarked) [Compound 74], the Dmax is above 70% and the half-maximal degradation concentration (DC50) is below 5.1 µM.
Compound `CCc1cccc2cc(O)cc(-c3ncc4c(N5CC6CCC(C5)N6)nc(OCCN5CCC(C6CCN(c7ccc8c(c7)C(=O)N(C7CCC(=O)NC7=O)C8=O)CC6)CC5)nc4c3F)c12` (centres unmarked) [Compound 27] gave a 50% degradation concentration (DC50) of 0.25 to 1 µM.
In turn, `C#Cc1c(F)ccc2cc(O)cc(-c3ncc4c(N5CC6CCC(C5)N6)nc(OCC5(CN6CCC(CC7CCN(c8ccc9c(c8)CN(C8CCC(=O)NC8=O)C9=O)CC7)CC6)CC5)nc4c3F)c12` (centres unmarked) [Compound 99, 3-{5-[4-({1-[(1-{[(4-{3,8-diazabicyclo[3.2.1]octan-3-yl}-7-(8-ethynyl-7-fluoro-3-hydroxynaphthalen-1-yl)-8-fluoropyrido[4,3-d]pyrimidin-2-yl)oxy]methyl}cyclopropyl)methyl]piperidin-4-yl}methyl)piperidin-1-yl]-1-oxo-2,3-dihydro-1H-isoindol-2-yl}piperidine-2,6-dione] had a Dmax above 70% and a DC50 below 5.1 µM.
`C#Cc1c(F)ccc2cccc(-c3ncc4c(N5CC6CCC(C5)N6)nc(OC[C@@]56CCCN5[C@H](CN5CCN(CC7CCN(c8ccc9c(c8)CN(C8CCC(=O)NC8=O)C9=O)CC7)CC5)CC6)nc4c3F)c12` (some centres unmarked) [Compound 147] came in with a Dmax above 70% and a DC50 below 5.1 µM.
`CCc1cccc2cc(O)cc(-c3ncc4c(N5CC6CCC(C5)N6)nc(OC[C@]56CCCN5[C@@H](COC(=O)N5CCN(c7cccc8c7CN(C7CCC(=O)NC7=O)C8=O)CC5)CC6)nc4c3F)c12` (stereo partly drawn) [Compound 61, [(3R,8R)-8-[[4-(3,8-diazabicyclo[3.2.1]octan-3-yl)-7-(8-ethyl-3-hydroxy-1-naphthyl)-8-fluoro-pyrido[4,3-d]pyrimidin-2-yl]oxymethyl]-1,2,3,5,6,7-hexahydropyrrolizin-3-yl]methyl 4-[2-(2,6-dioxo-3-piperidyl)-1-oxo-isoindolin-4-yl]piperazine-1-carboxylate] yielded a DC50 of 0.25 to 1 µM.
As to `O=C1CCC(N2Cc3c(ccc(N4CCC(CN5CCC(CC6CCN(CCOc7nc(N8CC9CCC(C8)N9)c8cnc(-c9cc(O)cc(Cl)c9C9CC9)c(F)c8n7)CC6)CC5)CC4)c3F)C2=O)C(=O)N1` (centres unmarked) [Compound 142], the Dmax is above 70% and the half-maximal degradation concentration (DC50) is below 5.1 µM.
In turn, `CCc1cccc2cc(O)cc(-c3ncc4c(N5CC6CCC(C5)N6)nc(OCCN5CCC(O[C@H]6CC[C@H](OC7CCN(c8cccc9c8CN(C8CCC(=O)NC8=O)C9=O)CC7)CC6)CC5)nc4c3F)c12` (some centres unmarked) [Compound 23] yielded a DC50 of 0.25 to 1 µM.
Compound `CCc1c(F)ccc2cc(O)cc(-c3ncc4c(N5CC6CCC(C5)N6)nc(OCCN5CCC(CC6CCN(CC7CCN(c8ccc9c(c8)n(C(C)C)c(=O)n9C8CCC(=O)NC8=O)CC7)CC6)CC5)nc4c3F)c12` (centres unmarked) [Compound 212, 3-{5-[4-({4-[(1-{2-[(4-{3,8-diazabicyclo[3.2.1]octan-3-yl}-7-(8-ethyl-7-fluoro-3-hydroxynaphthalen-1-yl)-8-fluoropyrido[4,3-d]pyrimidin-2-yl)oxy]ethyl}piperidin-4-yl)methyl]piperidin-1-yl}methyl)piperidin-1-yl]-2-oxo-3-(propan-2-yl)-2,3-dihydro-1H-1,3-benzodiazol-1-yl}piperidine-2,6-dione] had a Dmax above 70% and a DC50 below 5.1 µM.
The corresponding values for `C#Cc1c(F)ccc2cc(O)cc(-c3ccc4c(N5CC6CCC(C5)N6)nc(OCCN5CCC(CN6CCC(CC7CCN(c8ccc9c(c8)n(C)c(=O)n9C8CCC(=O)NC8=O)CC7)CC6)CC5)nc4c3F)c12` (centres unmarked) [Compound 233] are above 70% and below 5.1 µM.
